From patent US12152008B2, “Cyclopentaimidazolones for the treatment of cancer” (The Broad Institute, Inc., priority 2018, dated 2024)

How the values were obtained:
Format in all cases: cell-based
BxPC-3 = assay: Cell line viability screen, IC50 (CellTiter-Glo 3D); settings: BxPC3 cell line
Method: (§1) Compounds were tested on patient-derived tumor organoids. Such organoids retain the three-dimensional structure of the tissue providing conditions that are more representative of in vivo behavior. Such organoids are described by Boj, Sylvia, et al., Cell 160: 324 (2015), hereby incorporated by reference in its entirety. Briefly, cultures of primary and metastatic pancreatic tumor specimens as patient-derived xenografts, 3D tumor organoids, and patient-derived cell lines were produced including a cohort of 21 patient-derived xenografts and 67 organoid cultures from primary and metastatic pancreatic tumor specimens. The functional dependencies of compounds in these patient-derived samples were measured on a 3D organoid and its matched 2D patient-derived cell lines. Conditions were optimized for performing high-throughput compound screening of 3D organoids, including suspension culture with Matrigel in 384-well plates, viability assessment with CellTiter-Glo 3D. […] FIG. 2A illustrates the dose dependent responses of an enantioenriched sample of Compound E1 synthesized using an enantio-purified sample of E1 in the (R,R)-configuration (70% ee) (e.g., E1(R,R)), an enantioenriched sample of E1 (“E1(S,S)”), and racemic mixtures of E1 on NCIH2405 cells (“E1”).
(§2) Table 1 gives the IC50 values (μM) of compounds having the structure of formula (I) (including E1(S,S) and E1(Rac) in patient-derived organoids and several cell lines. Compounds E1-E12 were synthesized as described above as racemates (i.e., E1(Rac)-R12(Rac), and E1(S,S) and E1(R,R) were synthesized using the (S,S)-5 reagent or (R,R)-5 reagent, respectively, as described above.

NCIH2405 cells = assay: as above; settings: read-out: IC50 NCIH 2405
Method: as §1, §2

OV-90 = assay: as above; settings: OV90 cell line
Method: as §1, §2

PaTu 8902 = assay: as above; settings: PaTu 8902 cell line
Method: as §1, §2

[1] = system: PF0039 patient-derived organoid; assay: Patient-derived organoid viability screen, IC50; settings: read-out: IC50 PF 0039
Method: as §1, §2

[2] = system: PF0172_T2 patient-derived organoid; assay: Patient-derived organoid viability screen, IC50; settings: read-out: IC50 PF 0172_T2
Method: as §1, §2

[3] = system: PF0202 patient-derived organoid; assay: Patient-derived organoid viability screen, IC50; settings: read-out: IC50 PF 0202
Method: as §1, §2

PF0071 organoids = assay: PF0071 sensitivity screen (organoid dose response); set-up: key: Active: the analog typically with the lower IC50 value was identified as “active”; Inactive: the analog with the higher IC50 value was identified as “inactive.”; settings: optically pure enantiomers
Method: as §1
E1(Rac), E5(Rac), and E8(Rac) were synthesized as racemic mixtures (i.e., without a chiral catalyst) and separated into six optically pure compounds.
With the absolute stereochemistry identified, the correlation between specific isomer and activity was determined for PF0071 organoids. Table 2 compares the activities of each set of racemates that were measured as compared to the designations illustrated in FIG. 2B.
The response to dose of several compounds (including a linkered analog) on PF0071 organoids were run. Enantiomers of E1, E5, and E8 were tested and compared to results with a linked compound synthesized as a racemic mixture as described above (identified in FIG. 3 as “Linked E1(Rac)”) having the structure: […]

[4] = system: patient derived organoids and cell lines; assay: Organoid and cell line screen, panel (FIG. 1); settings: organoids PF0039, PF0071, PF0172-T2, PF0202, cell lines PaTu 8902, BxPC-3, NCIH2405, OV-90
Method: as §1

IC50 (BxPC-3) [µM]	SMILES	IC50 (NCIH2405 cells) [µM]	IC50 (OV-90) [µM]	IC50 (PaTu 8902) [µM]	IC50 [1] [µM]	IC50 [2] [µM]	IC50 [3] [µM]	Activity (active or inactive) (PF0071 organoids)	Effect on viability across panel [4]
56.4	COc1ccc(N2C(=O)N(CC(C)C)C3C(OC)C=CC32)cc1 (racemic) [E9(Rac)]	58.8	65.5	76.8	43.5	88.6	47.1	–	–
64.4	COC1CCC2C1N(CC(C)C)C(=O)N2c1ccccc1 (racemic) [E5(Rac)]	4.11	83.3	> 100	7.26	1.16	16.5	–	–
–	CO[C@@H]1C=C[C@@H]2[C@H]1N(CC(C)C)C(=O)N2c1ccccc1 (stereo in doubt)	–	–	–	–	–	–	Active	–
> 100	CC(C)CN1C(=O)N(c2ccccc2)C2C=CC(O)C21 (racemic) [E2(Rac)]	> 100	> 100	> 100	31.7	4.05	> 100	–	–
–	CO[C@H]1CC[C@H]2[C@@H]1N(CC(C)C)C(=O)N2c1ccccc1 (stereo in doubt)	–	–	–	–	–	–	Inactive	–
> 100	COC1C=CC2C1N(CC(C)C)C(=O)N2c1ccccc1 (racemic) [Compound E1]	7.41	> 100	> 100	22.3	3.41	55.4	–	dose-dependent effect on only a subset of organoids
–	CO[C@H]1C=C[C@H]2[C@@H]1N(CC(C)C)C(=O)N2c1ccc(Cl)cc1 (stereo in doubt)	–	–	–	–	–	–	Inactive	–
–	CO[C@H]1C=C[C@H]2[C@@H]1N(CC(C)C)C(=O)N2c1ccccc1 (stereo in doubt)	–	–	–	–	–	–	Inactive	–
> 100	COC1C=CC2C1N(CC(C)C)C(=O)N2c1ccc(F)cc1 (racemic) [E11(Rac)]	10.2	93.6	> 100	28.2	4.08	49.5	–	–
–	CO[C@@H]1CC[C@@H]2[C@H]1N(CC(C)C)C(=O)N2c1ccccc1 (stereo in doubt)	–	–	–	–	–	–	Active	–
–	CO[C@@H]1C=C[C@@H]2[C@H]1N(CC(C)C)C(=O)N2c1ccc(Cl)cc1 (stereo in doubt)	–	–	–	–	–	–	Active	–
96.4	CCOC1C=CC2C1N(CC(C)C)C(=O)N2c1ccccc1 (racemic) [E4(Rac)]	14.3	76.9	> 100	25.8	3.4	40.2	–	–
> 100	COC1C=CC2C1N(CC(C)C)C(=O)N2c1ccc(C)cc1 (racemic) [E12(Rac)]	2.04	85.9	> 100	7.42	1.21	51.4	–	–
17.3	COC1C=CC2C1N(CC(C)C)C(=O)N2c1ccc(Cl)cc1 (racemic) [E8(Rac)]	2.58	30.7	33.9	8.19	2.15	27.9	–	–
66.6	COC1C=CC2C1N(CC(C)C)C(=O)N2c1cccc(F)c1 (racemic) [E10(Rac)]	3.44	83.9	> 100	8.14	2.22	36.9	–	–
> 100	COC1C=CC2C1N(C)C(=O)N2c1ccccc1 (racemic) [E3(Rac)]	> 100	> 100	> 100	> 100	85.8	> 100	–	–
> 100	COC1C=CC2C1N(CC(C)C)C(=O)N2Cc1ccccc1 (racemic) [E6(Rac)]	> 100	96.4	> 100	40.7	17.4	65.3	–	–
> 100	COC1C=CC2C1N(CC(C)C)C(=O)N2c1ccc(C#N)cc1 (racemic) [E7(Rac)]	> 100	> 100	75.1	> 100	> 100	≥ 100	–	–
